Reference: ChEMBL document CHEMBL1201862, “PubChem BioAssay data set” (2004)
“And” between values parts separate entries of the source, which are not always exact repeats. Equal entries are not always repeated. The source made the active and inactive calls.

Experiments:
[1] = viability of uninfected HEp-2 cells – cell-based, HTS, cytotoxicity control for RSV inhibitor project, dose response (AID 2410); assay type: functional; conditions: human respiratory syncytial virus
[2] = target: T1, Corticotropin-releasing factor receptor 2/Corticotropin-releasing factor-binding protein (Homo sapiens, UniProt P24387+Q13324); assay: Dose Response confirmation of uHTS hits for small molecule antagonists of the CRF-binding protein and CRF-R2 receptor complex.; assay type: functional; conditions: read-out: IC50_Mean
T1 sequence (Q13324 whole entry): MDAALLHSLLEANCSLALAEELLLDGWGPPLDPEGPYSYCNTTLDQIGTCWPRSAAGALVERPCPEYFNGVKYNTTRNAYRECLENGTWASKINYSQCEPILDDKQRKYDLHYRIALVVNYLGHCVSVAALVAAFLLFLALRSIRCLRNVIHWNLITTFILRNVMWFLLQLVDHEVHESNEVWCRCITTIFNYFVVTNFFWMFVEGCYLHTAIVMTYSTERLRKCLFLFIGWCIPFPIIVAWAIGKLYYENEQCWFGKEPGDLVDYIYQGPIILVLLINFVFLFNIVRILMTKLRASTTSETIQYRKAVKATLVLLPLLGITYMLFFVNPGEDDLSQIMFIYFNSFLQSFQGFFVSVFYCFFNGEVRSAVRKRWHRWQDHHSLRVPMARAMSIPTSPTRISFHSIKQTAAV
T1 sequence (P24387 whole entry): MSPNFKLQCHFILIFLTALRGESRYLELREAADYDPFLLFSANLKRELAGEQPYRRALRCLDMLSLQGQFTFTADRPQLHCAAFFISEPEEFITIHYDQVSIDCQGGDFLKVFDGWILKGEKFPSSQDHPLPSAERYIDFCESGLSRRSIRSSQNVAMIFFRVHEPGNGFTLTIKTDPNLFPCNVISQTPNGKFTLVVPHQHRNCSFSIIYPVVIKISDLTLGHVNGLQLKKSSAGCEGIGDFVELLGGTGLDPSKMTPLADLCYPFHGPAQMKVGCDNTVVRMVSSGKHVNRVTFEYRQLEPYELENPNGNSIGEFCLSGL

[3] = target: T1, Corticotropin-releasing factor receptor 2/Corticotropin-releasing factor-binding protein; assay: activators of CRF receptor 2 with binding protein – uHTS hits, confirmation (AID 602473); assay type: functional; conditions: read-out: EC50_Mean
[4] = NIH3T3 cell viability loss – ATP luminescence, mouse fibroblasts, counter-screen, dose response (AID 2010); assay type: functional, cell-based;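 note: cells exposed to compound for about 90 hours before reading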
[5] = Trypanosoma cruzi growth suppression in host cells – NIH3T3 host cells, beta-gal luminescence, confirmation (AID 2044); assay type: functional, cell-based;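 note: intracellular parasites grown in NIH/3T3 mouse fibroblasts as host cells; luminescent beta-galactosidase reporter signal from transgenic T. cruzi replicating inside host cells; inhibitors lower the luminescence signal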
INS1 = assay: INS-1E survival protection against cytokine death – cell-based, luminescence, retest, dose response (AID 449756); assay type: functional; conditions: Rattus norvegicus;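 note: cell death triggered by IL-1 beta plus TNF-alpha plus IFN-gamma mixture; protective hits raise ATP signal compared with cytokine alone wells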
Cytochrome P450 2D6 = Cytochrome P450 2D6 (Homo sapiens, UniProt P10635);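 note: CYP2D6 member of a cytochrome P450 panel assay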
Chain of Cytochrome P450 2D6 (P10635 whole entry): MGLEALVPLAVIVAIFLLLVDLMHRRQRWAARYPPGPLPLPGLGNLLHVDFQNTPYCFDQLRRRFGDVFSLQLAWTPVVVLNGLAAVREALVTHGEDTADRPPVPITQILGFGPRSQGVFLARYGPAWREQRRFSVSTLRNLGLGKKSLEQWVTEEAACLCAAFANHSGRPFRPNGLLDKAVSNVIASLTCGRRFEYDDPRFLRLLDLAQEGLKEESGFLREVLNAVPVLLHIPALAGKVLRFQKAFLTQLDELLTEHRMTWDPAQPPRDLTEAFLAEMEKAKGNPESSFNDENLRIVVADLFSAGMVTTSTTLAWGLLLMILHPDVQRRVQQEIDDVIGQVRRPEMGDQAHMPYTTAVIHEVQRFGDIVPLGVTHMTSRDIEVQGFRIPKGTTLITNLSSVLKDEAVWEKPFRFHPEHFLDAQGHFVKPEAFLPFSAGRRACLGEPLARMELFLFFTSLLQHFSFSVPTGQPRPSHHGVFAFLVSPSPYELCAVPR

Cytochrome P450 1A2 = target: T2, Cytochrome P450 1A2 (Homo sapiens, UniProt P05177);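 note: PubChem cytochrome P450 panel assay, CYP1A2 panel member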
T2 sequence (P05177 whole entry): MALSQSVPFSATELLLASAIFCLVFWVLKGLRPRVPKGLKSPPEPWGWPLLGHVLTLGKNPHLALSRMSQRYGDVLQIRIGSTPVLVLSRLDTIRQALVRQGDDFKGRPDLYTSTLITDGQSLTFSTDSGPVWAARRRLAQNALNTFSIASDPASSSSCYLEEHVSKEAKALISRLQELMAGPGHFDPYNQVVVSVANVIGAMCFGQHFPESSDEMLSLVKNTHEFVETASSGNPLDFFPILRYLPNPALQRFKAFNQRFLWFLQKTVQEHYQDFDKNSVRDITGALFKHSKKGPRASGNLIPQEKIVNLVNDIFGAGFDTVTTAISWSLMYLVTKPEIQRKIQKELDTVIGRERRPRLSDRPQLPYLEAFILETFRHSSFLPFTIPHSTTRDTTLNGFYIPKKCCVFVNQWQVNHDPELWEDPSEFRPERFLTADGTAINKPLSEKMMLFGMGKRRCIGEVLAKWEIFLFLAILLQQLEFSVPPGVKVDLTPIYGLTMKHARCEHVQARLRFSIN

Cytochrome P450 2C19 = Cytochrome P450 2C19 (Homo sapiens, UniProt P33261); assay: Cytochrome panel assay with activity outcomes. Panel member name: p450-cyp2c19 Compounds with AC50 equal or less than 10 uM are considered active; assay type: functional
Chain of Cytochrome P450 2C19 (P33261 whole entry): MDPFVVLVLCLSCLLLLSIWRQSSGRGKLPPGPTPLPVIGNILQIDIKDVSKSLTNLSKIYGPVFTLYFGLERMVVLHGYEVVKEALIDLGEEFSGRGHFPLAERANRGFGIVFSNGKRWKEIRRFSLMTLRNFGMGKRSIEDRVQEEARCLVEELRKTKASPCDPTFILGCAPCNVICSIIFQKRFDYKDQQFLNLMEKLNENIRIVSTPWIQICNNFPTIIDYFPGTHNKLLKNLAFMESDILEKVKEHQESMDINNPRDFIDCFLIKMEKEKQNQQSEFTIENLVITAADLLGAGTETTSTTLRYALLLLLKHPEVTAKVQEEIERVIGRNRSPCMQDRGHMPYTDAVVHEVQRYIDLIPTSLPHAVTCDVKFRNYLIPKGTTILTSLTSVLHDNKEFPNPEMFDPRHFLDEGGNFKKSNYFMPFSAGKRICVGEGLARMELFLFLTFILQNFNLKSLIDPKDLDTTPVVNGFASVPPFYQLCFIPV

Cytochrome P450 2C9 = Cytochrome P450 2C9 (Homo sapiens, UniProt P11712)
Chain of Cytochrome P450 2C9 (P11712 whole entry): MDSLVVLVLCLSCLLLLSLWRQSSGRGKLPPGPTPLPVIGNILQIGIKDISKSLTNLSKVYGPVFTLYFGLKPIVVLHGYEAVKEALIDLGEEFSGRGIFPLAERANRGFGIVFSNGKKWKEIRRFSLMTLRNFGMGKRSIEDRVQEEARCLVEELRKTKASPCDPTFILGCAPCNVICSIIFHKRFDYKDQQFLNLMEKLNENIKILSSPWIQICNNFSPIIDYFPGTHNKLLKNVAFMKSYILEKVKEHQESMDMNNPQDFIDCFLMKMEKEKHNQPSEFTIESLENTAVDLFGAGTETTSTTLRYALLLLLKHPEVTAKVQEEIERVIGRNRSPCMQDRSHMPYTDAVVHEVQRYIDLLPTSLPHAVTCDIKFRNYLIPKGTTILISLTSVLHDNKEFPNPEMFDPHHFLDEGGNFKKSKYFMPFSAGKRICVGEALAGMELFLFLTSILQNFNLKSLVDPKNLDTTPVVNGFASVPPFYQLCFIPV

Cytochrome P450 3A4 = Cytochrome P450 3A4 (Homo sapiens, UniProt P08684);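 note: CYP3A4 tested as one member of a cytochrome P450 panel screen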
Chain of Cytochrome P450 3A4 (P08684 whole entry): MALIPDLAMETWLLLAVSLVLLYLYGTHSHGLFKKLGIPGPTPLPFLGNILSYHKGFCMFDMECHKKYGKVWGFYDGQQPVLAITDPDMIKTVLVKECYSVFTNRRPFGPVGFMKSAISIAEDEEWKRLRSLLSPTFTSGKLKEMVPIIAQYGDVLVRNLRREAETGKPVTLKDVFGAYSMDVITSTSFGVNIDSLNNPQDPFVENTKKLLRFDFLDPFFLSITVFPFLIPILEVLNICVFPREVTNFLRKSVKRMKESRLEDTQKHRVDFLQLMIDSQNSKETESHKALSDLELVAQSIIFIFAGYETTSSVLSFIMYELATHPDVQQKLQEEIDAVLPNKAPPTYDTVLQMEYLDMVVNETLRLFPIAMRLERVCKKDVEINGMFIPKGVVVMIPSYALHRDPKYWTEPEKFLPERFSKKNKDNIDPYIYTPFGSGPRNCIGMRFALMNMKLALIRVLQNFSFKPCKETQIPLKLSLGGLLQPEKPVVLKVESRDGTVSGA

[6] = viability of PTEN-deleted HCT116 cells – cell-based, HCT116 PTEN knockout, dose response (AID 1047); assay type: functional;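 note: HCT116 colon tumor cells with PTEN knocked out; cells exposed to compound for 60 hours before readout; potency for loss of cell viability measured by luminescence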
[7] = luciferase reporter signal suppression in cells – H4 neuroglioma cells, luminescence, dose response (AID 1990); assay type: functional, cell-based
[8] = alpha-synuclein stem-loop luciferase translation blockers – H4 neuroglioma cells, luminescence, confirmation (AID 1988); assay type: functional, cell-based
[9] = Luminescence Cell-Based Dose Response HTS to Identify Inhibitors of 5'UTR Stem-Loop Driven Prion Protein mRNA Translation in H4 Neuroglioblastoma Cells. [Related pubchem assays: 1827 (Project Summary), 1813 (Primary HTS)]; assay type: functional

N#Cc1cnn2c(-c3cccc(C(F)(F)F)c3)ccnc12
CC50 [1]: 47 µM (active)

O=C(NCc1nnc(SCC(=O)N2CCCc3ccccc32)n1-c1ccccc1)c1cccc2ccccc12
CC50 [1]: > 50 µM (active)

CC#CCCC(=O)N1C=Cc2ccccc2C1C#N (stereo not given)
IC50 [2]: > 47.1 µM (inactive)
EC50 [3]: > 53 µM (inactive)

O=C(/C=C/c1ccco1)OCc1nnc(-c2ccc(Cl)cc2)o1
IC50 [2]: > 47.1 µM (inactive)
EC50 [3]: > 53 µM (inactive)

O=c1c2c3c(sc2n(CCN2CCCCC2)c(=O)n1Cc1ccco1)CCCCC3
EC50 [4]: > 30 µM (not active)
EC50 [5]: 2.76 µM (active)
AC50 (INS1): 17.9 µM (active)

CC(/C=C/c1ccccc1)=N/NC(=O)CNC(=O)c1ccc2c(c1)OCO2
AC50 (Cytochrome P450 2D6): 0.0501 µM (inconclusive)
IC50 [2]: > 47.1 µM (inactive)
EC50 [3]: > 53 µM (inactive)

CSc1cccc(NC(=O)C(C)C)c1
IC50 [2]: > 47.1 µM (inactive)
EC50 [3]: > 53 µM (inactive)

CN1CCN(C2=Nc3ccccc3Oc3ccc(Cl)cc32)CC1 [LOXAPINE SUCCINATE]
AC50 (Cytochrome P450 2D6): 10 µM (inconclusive) and 31.6 µM (inconclusive)
AC50 (Cytochrome P450 1A2): 31.6 µM (inconclusive) and 3.16 µM (inconclusive)

CC(C)OC(=O)/C(=C\c1ccc2c(c1)c1ccccc1n2C)NC(=O)c1ccccc1
AC50 (Cytochrome P450 2C19; read-out: AC50): 2.51 µM (inconclusive)
AC50 (Cytochrome P450 1A2): 2.24 µM (inconclusive)
AC50 (Cytochrome P450 2C9): 6.31 µM (inconclusive)

O=C(O)c1ccccc1NS(=O)(=O)c1ccc2c(c1)OCCO2
IC50 [2]: > 47.1 µM (inactive)
EC50 [3]: > 53 µM (inactive)

Clc1ccccc1OCCCCN1CCCC1
AC50 (Cytochrome P450 2C19; read-out: AC50): 28.2 µM (inconclusive)
AC50 (Cytochrome P450 1A2): 15.8 µM (inconclusive)

CCOc1ccc(-c2c(=O)n(OCc3ccccn3)c3ccccc3[n+]2[O-])cc1
AC50 (Cytochrome P450 2C19; read-out: AC50): 15.8 µM (inconclusive)
AC50 (Cytochrome P450 3A4): 12.6 µM (inconclusive)
AC50 (Cytochrome P450 1A2): 12.6 µM (inconclusive)
AC50 (Cytochrome P450 2C9): 5.62 µM (inconclusive)

Cn1c(CC(=O)Nc2ccc(Cl)c(Cl)c2)nnc1SCC(=O)N1CCN(c2ccccc2)CC1
AC50 (Cytochrome P450 2D6): 25.1 µM (inconclusive)
AC50 (Cytochrome P450 1A2): 15.8 µM (inconclusive)

Cc1onc(-c2ccccc2Cl)c1C(=O)Nc1cccc2cccnc12
CC50 [1]: 3.16 µM (active)

CCN(C(=O)CSc1cc(C)c2ccc(OC)cc2n1)C1CCS(=O)(=O)C1 (stereo not given)
IC50 [2]: > 47.1 µM (inactive)
EC50 [3]: > 53 µM (inactive)

O=C(Nc1cccc(F)c1)N1CC[C@@]2(CCCN(C(=O)Oc3ccccc3)C2)C1
AC50 (Cytochrome P450 3A4): 5.01 µM (inconclusive)
AC50 (Cytochrome P450 2D6): 20 µM (inconclusive)
AC50 (Cytochrome P450 1A2): 15.8 µM (inconclusive)

Cc1nc2ccccc2c(=O)n1/N=C/c1c(O)ccc2ccccc12
AC50 (INS1): 6.35 µM (active)

CSc1nnnn1-c1ccc(Cl)cc1
CC50 [1]: 30.7 µM (active)

O=C(Nc1ccncc1)Nc1cccc(C(F)(F)F)c1
CC50 [1]: > 50 µM (active)

C/C(=C\c1ccccc1)CN1CCC(C(=O)N2CCCCC2)CC1
IC50 [2]: > 47.1 µM (inactive)
EC50 [3]: > 53 µM (inactive)

O=C(c1ccco1)N1CCN(c2ncnc3c2cnn3-c2ccccc2)CC1
CC50 [1]: 38.5 µM (active)

O=C(C1CCC1)N1CCc2cc(S(=O)(=O)Nc3ccc4c(c3)OCCO4)ccc21
AC50 (INS1): 5.88 µM (active)

COc1ccccc1NC(=O)CCc1c(C)nc(O)c(C#N)c1C
AC50 (Cytochrome P450 2C19): inconclusive
AC50 (Cytochrome P450 3A4): 17.8 µM (inconclusive)
AC50 (Cytochrome P450 1A2): 0.00631 µM (inconclusive)

O=c1c2ccccc2nc2n1C(CBr)CN2 (stereo not given)
IC50 [2]: > 47.1 µM (inactive)
EC50 [3]: > 53 µM (inactive)

COc1ccc(CCNC(=O)c2c(N)n(CCN3CCOCC3)c3nc4ccccc4nc23)cc1OC
EC50 [6]: 94.9 µM (active)
EC50 [7]: > 120 µM (not active)
EC50 [8]: > 120 µM (not active)
EC50 [9]: 13.3 µM (active)

Cc1ccc(C(=O)Nc2nnc(-c3ccco3)o2)cc1C
IC50 [2]: > 47.1 µM (inactive)
EC50 [3]: > 53 µM (inactive)

CCOc1ccc(C2C(C(=O)c3ccc4c(c3)OCCO4)=C(O)C(=O)N2CCCN2CCOCC2)cc1 (stereo not given)
IC50 [2]: > 47.1 µM (inactive)
EC50 [3]: > 53 µM (inactive)
